Here are results for 20 molecules from patent US20240368150A1 (Hoffmann-La Roche Inc., priority 2021, published 2024).

The subject of experiment [1] is primary human T-cells. Description: Proliferation assay after 5 days (CellTiter-Glo, CD3 stimulation; PBS counter screen). Format: cell-based. To be noted: CD3 stimulation; for Emax: read-out: Emax proliferation (% activation); for EC50: primary human T-cells, CellTiter-Glo after 5 days, EC50 of fitted sigmoidal curve, read-out: Tcell Proliferation CD3 EC50. Put shortly:
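Proliferation is measured 5 days post-treatment as ATP-dependent luminescence. Flags mark compounds that activated unstimulated cells or harmed viability.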
For orientation: Cellular ATP, detected with luciferase, serves as a proxy for viable cell number.

For experiment [2], the system named is primary human T-cells.
Setting [3] is: Homo sapiens, T-cell, 120 h, 5 days, normalized to reference compound A1 as stimulator control = 100%, DMSO neutral control.

Read-outs that look alike come from different tables or passages of the source. Some results are limits rather than exact numbers.

Consider `CC(=O)N[C@H]1CS(=O)(=O)c2cc(F)c(-c3nnc(C(C)(C)C)o3)cc2N(Cc2ccc(Cl)cc2)C1=O` [Example 258, N-[(3R)-7-(5-tert-butyl-1,3,4-oxadiazol-2-yl)-5-[(4-chlorophenyl)methyl]-8-fluoro-1,1,4-trioxo-2,3-dihydro-1λ^6,5-benzothiazepin-3-yl]acetamide], for which the Emax in experiment [1] (setting [3]) was determined as 124%. Further, the EC50 in experiment [1] (Homo sapiens, T-cell, 120 h) amounted to 586 nM; in experiment [2], 10800 nM.

`COC(=O)N1CCC(c2nnc(-c3cc4c(cc3F)S(=O)(=O)C[C@H](N)C(=O)N4Cc3ccc(Cl)cc3)o2)C1` (stereo partly drawn) [Example 166, methyl 3-[5-[(3R)-3-amino-5-[(4-chlorophenyl)methyl]-8-fluoro-1,1,4-trioxo-2,3-dihydro-1λ^6,5-benzothiazepin-7-yl]-1,3,4-oxadiazol-2-yl]pyrrolidine-1-carboxylate]: the Emax in experiment [1] (setting [3]) came out at 104%. Further, the EC50 in experiment [1] (Homo sapiens, T-cell, 120 h) turned out to be 904 nM; in experiment [2] it was 567 nM.

For `N[C@H]1CS(=O)(=O)c2cc(F)c(-c3nnc(C4CC4)o3)cc2N(Cc2ccc(Cl)cc2)C1=O` [Example 85, (3R)-3-Amino-5-[(4-chlorophenyl)methyl]-7-(5-cyclopropyl-1,3,4-oxadiazol-2-yl)-8-fluoro-1,1-dioxo-2,3-dihydro-1λ^6,5-benzothiazepin-4-one], in experiment [1] (setting [3]), the Emax is 100%. Further, the EC50 amounted to 237 nM in experiment [1] (Homo sapiens, T-cell, 120 h) and 470 nM in experiment [2].

With `CC(C)(C#N)c1nnc(-c2ccc3c(c2)N(Cc2ccc(OC(F)(F)F)cc2)C(=O)[C@@H](N)CS3(=O)=O)o1` [Example 420, 2-[5-[(3R)-3-amino-1,1,4-trioxo-5-[[4-(trifluoromethoxy)phenyl]methyl]-2,3-dihydro-1λ^6,5-benzothiazepin-7-yl]-1,3,4-oxadiazol-2-yl]-2-methyl-propanenitrile], the Emax in experiment [1] (setting [3]) came to 167%. Also, the EC50 in experiment [1] (Homo sapiens, T-cell, 120 h) was determined as 1590 nM; in experiment [2], 1350 nM.

With `CC(Nc1nnc(-c2cc3c(cc2F)S(=O)(=O)C[C@H](N)C(=O)N3Cc2ccc(Cl)cc2)o1)C1CC1(F)F` (single isomer, unassigned) [Example 496], the “Emax proliferation (% activation)” value in experiment [1] (5 days, normalized to reference compound A1 as stimulator control = 100%, DMSO neutral control) is listed as 91 % activation. Moreover, the EC50 in experiment [1] was 1150 nM; in experiment [2] it was greater than 10000 nM.

Take `CN1CCC(F)(F)C(c2nnc(-c3cc4c(cc3F)S(=O)(=O)C[C@H](N)C(=O)N4Cc3ccc(Cl)cc3)o2)C1` (stereo partly drawn) [Example 158, (3R)-3-amino-5-[(4-chlorophenyl)methyl]-7-[5-(4,4-difluoro-1-methyl-3-piperidyl)-1,3,4-oxadiazol-2-yl]-8-fluoro-1,1-dioxo-2,3-dihydro-1λ^6,5-benzothiazepin-4-one]: in experiment [1] (setting [3]), the Emax was determined as 141%. Besides, the EC50 was 2420 nM in experiment [1] (Homo sapiens, T-cell, 120 h) and 194 nM in experiment [2].

On to `CC(C)(CN1CCOCC1)c1nnc(-c2cc3c(cc2F)S(=O)(=O)C[C@H](N)C(=O)N3Cc2ccc(Cl)cc2)o1` [Example 147, (3R)-3-amino-5-[(4-chlorophenyl)methyl]-7-[5-(1,1-dimethyl-2-morpholino-ethyl)-1,3,4-oxadiazol-2-yl]-8-fluoro-1,1-dioxo-2,3-dihydro-1λ^6,5-benzothiazepin-4-one], for which, in experiment [1] (setting [3]), the Emax is 117%. Besides, the EC50 was 343 nM in experiment [1] (Homo sapiens, T-cell, 120 h) and 348 nM in experiment [2].

Turning to `CC1(c2nnc(-c3cc4c(cc3F)S(=O)(=O)C[C@H](N)C(=O)N4Cc3ccc(Cl)cc3)o2)CCCO1` (stereo partly drawn) [Example 88, (3R)-3-amino-5-[(4-chlorophenyl)methyl]-8-fluoro-7-[5-(2-methyltetrahydrofuran-2-yl)-1,3,4-oxadiazol-2-yl]-1,1-dioxo-2,3-dihydro-1λ^6,5-benzothiazepin-4-o], the Emax in experiment [1] (setting [3]) came out at 97%. Moreover, the EC50 amounted to 242 nM in experiment [1] (Homo sapiens, T-cell, 120 h) and 689 nM in experiment [2].

`CC(C)(C)c1nnc(-c2cc3c(cc2F)S(=O)(=O)C[C@H](NC(=O)CCN)C(=O)N3Cc2ccc(Cl)cc2)o1` [Example 264, 3-amino-N-[(3R)-7-(5-tert-butyl-1,3,4-oxadiazol-2-yl)-5-[(4-chlorophenyl)methyl]-8-fluoro-1,1,4-trioxo-2,3-dihydro-1λ^6,5-benzothiazepin-3-yl]propanamide]: in experiment [1] (setting [3]), the Emax amounted to 106%. Besides, the EC50 in experiment [1] (Homo sapiens, T-cell, 120 h) turned out to be 2700 nM; in experiment [2] it was 8100 nM.

Regarding `N[C@H]1CS(=O)(=O)c2cc(F)c(-c3nnc(N4CC5(C4)CC(F)(F)C5)o3)cc2N(Cc2ccc(Cl)cc2)C1=O` [Example 479, (3R)-3-amino-5-[(4-chlorophenyl)methyl]-7-[5-(6,6-difluoro-2-azaspiro[3.3]heptan-2-yl)-1,3,4-oxadiazol-2-yl]-8-fluoro-1,1-dioxo-2,3-dihydro-1λ^6,5-benzothiazepin-4-one], the Emax in experiment [1] (setting [3]) was 127%. Also, the EC50 in experiment [1] (Homo sapiens, T-cell, 120 h) is 439 nM; in experiment [2] it was 110 nM.

For `CC(C)(CNC1CCOC1)c1nnc(-c2cc3c(cc2F)S(=O)(=O)C[C@H](N)C(=O)N3Cc2ccc(Cl)cc2)o1` (stereo partly drawn) [Example 157, (3R)-3-amino-5-[(4-chlorophenyl)methyl]-7-[5-[1,1-dimethyl-2-(tetrahydrofuran-3-ylamino)ethyl]-1,3,4-oxadiazol-2-yl]-8-fluoro-1,1-dioxo-2,3-dihydro-1λ^6,5-benzothiazepin-4-one], the Emax in experiment [1] (setting [3]) was 106%. In addition, the EC50 in experiment [1] (Homo sapiens, T-cell, 120 h) was determined as 1010 nM; in experiment [2], 2100 nM.

As to `CC(C)(C)c1nnc(-c2ccc3c(c2)N(Cc2ccc(N4CCOCC4)cc2)C(=O)[C@@H](N)CS3(=O)=O)o1` [Example 446, (3R)-3-amino-7-(5-tert-butyl-1,3,4-oxadiazol-2-yl)-5-[(4-morpholinophenyl)methyl]-1,1-dioxo-2,3-dihydro-1λ^6,5-benzothiazepin-4-one], the Emax in experiment [1] (setting [3]) was determined as 51%. In addition, the EC50 in experiment [1] (Homo sapiens, T-cell, 120 h) was found to be 9900 nM; in experiment [2], 7570 nM.

`N[C@H]1CS(=O)(=O)c2cc(F)c(-c3nnc(N4CC5(CCCO5)C4)o3)cc2N(Cc2ccc(Cl)cc2)C1=O` [Example 505, (3R)-3-amino-5-[(4-chlorophenyl)methyl]-8-fluoro-7-[5-(5-oxa-2-azaspiro[3.4]octan-2-yl)-1,3,4-oxadiazol-2-yl]-1,1-dioxo-2,3-dihydro-1λ^6,5-benzothiazepin-4-one]: the Emax in experiment [1] (setting [3]) worked out at 94%. Also, the EC50 in experiment [1] (Homo sapiens, T-cell, 120 h) came to 182 nM; in experiment [2], 191 nM.

For the molecule `CC(=O)N1CC(n2nnc(-c3cc4c(cc3F)S(=O)(=O)C[C@H](N)C(=O)N4Cc3ccc(Cl)cc3)n2)CC(F)(F)C1` (stereo partly drawn) [Example 24, (3R)-7-[2-(1-acetyl-5,5-difluoro-3-piperidyl)tetrazol-5-yl]-3-amino-5-[(4-chlorophenyl)methyl]-8-fluoro-1,1-dioxo-2,3-dihydro-1λ^6,5-benzothiazepin-4-one], in experiment [1] (setting [3]), the Emax is 95%. Moreover, the EC50 came out at 2020 nM in experiment [1] (Homo sapiens, T-cell, 120 h) and 6620 nM in experiment [2].

As to `CC(C)(C)c1nnc(-c2cc3c(cc2N)S(=O)(=O)C[C@H](N)C(=O)N3Cc2ccc(Cl)cc2)o1` [Example 275, (3R)-3,8-diamino-7-(5-tert-butyl-1,3,4-oxadiazol-2-yl)-5-[(4-chlorophenyl)methyl]-1,1-dioxo-2,3-dihydro-1λ^6,5-benzothiazepin-4-one], the Emax in experiment [1] (setting [3]) came out at 108%. For the same molecule, the EC50 in experiment [1] (Homo sapiens, T-cell, 120 h) was 5490 nM; in experiment [2] it was 9150 nM.

`CN1CC[C@H](n2nnc(-c3cc4c(cc3F)S(=O)(=O)C[C@H](N)C(=O)N4Cc3ccc(Cl)cc3)n2)C1` [Example 9, (3R)-3-amino-5-[(4-chlorophenyl)methyl]-8-fluoro-1,1-dioxo-7-[2-[(3S)-1-methylpyrrolidin-3-yl]tetrazol-5-yl]-2,3-dihydro-1λ^6,5-benzothiazepin-4-one]: in experiment [1] (setting [3]), the Emax came to 63%. The EC50 in experiment [1] (Homo sapiens, T-cell, 120 h) came to 4660 nM; in experiment [2], 1320 nM.

For `COC(=O)NC(C(F)(F)F)C(C)(C)c1nnc(-c2cc3c(cc2F)S(=O)(=O)C[C@H](N)C(=O)N3Cc2ccc(Cl)cc2)o1` (stereo partly drawn) [Example 137, methyl N-[2-methyl-2-[5-[(3R)-3-amino-5-[(4-chlorophenyl)methyl]-8-fluoro-1,1,4-trioxo-2,3-dihydro-1λ^6,5-benzothiazepin-7-yl]-1,3,4-oxadiazol-2-yl]-1-(trifluoromethyl)propyl]carbamate], the Emax in experiment [1] (setting [3]) stood at 90%. Besides, the EC50 in experiment [1] (Homo sapiens, T-cell, 120 h) was found to be 309 nM; in experiment [2], 487 nM.

Regarding `COC1CCN(c2ccc(CN3C(=O)[C@@H](N)CS(=O)(=O)c4ccc(-c5nnc(C(C)(C)C)o5)cc43)cc2)CC1` [Example 447, (3R)-3-amino-7-(5-tert-butyl-1,3,4-oxadiazol-2-yl)-5-[[4-(4-methoxy-1-piperidyl)phenyl]methyl]-1,1-dioxo-2,3-dihydro-1λ^6,5-benzothiazepin-4-one], in experiment [1] (setting [3]), the Emax came to 113%. The EC50 in experiment [1] (Homo sapiens, T-cell, 120 h) is greater than 10000 nM; in experiment [2], 2540 nM.

In the case of `N[C@H]1CS(=O)(=O)c2cc(F)c(-c3nnc(-c4ccccc4F)o3)cc2N(Cc2ccc(Cl)cc2)C1=O` [Example 108, (3R)-3-amino-5-[(4-chlorophenyl)methyl]-8-fluoro-7-[5-(2-fluorophenyl)-1,3,4-oxadiazol-2-yl]-1,1-dioxo-2,3-dihydro-1λ^6,5-benzothiazepin-4-one], the Emax in experiment [1] (setting [3]) was 117%. Also, the EC50 in experiment [1] (Homo sapiens, T-cell, 120 h) was 1530 nM; in experiment [2], 498 nM.

With `CCc1coc(-c2cc3c(cc2F)S(=O)(=O)C[C@H](N)C(=O)N3Cc2ccc(Cl)cc2)n1` [Example 216, (3R)-3-amino-5-[(4-chlorophenyl)methyl]-7-(4-ethyloxazol-2-yl)-8-fluoro-1,1-dioxo-2,3-dihydro-1λ^6,5-benzothiazepin-4-one], the Emax in experiment [1] (setting [3]) amounted to 41%. Also, the EC50 in experiment [1] (Homo sapiens, T-cell, 120 h) is greater than 20000 nM; in experiment [2], 16400 nM.
